Source: ChEMBL document CHEMBL1201862, “PubChem BioAssay data set” (2004)
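These data come from cells grown in 96-well plates and exposed to compound for 48 hours at five concentrations. GI50 is the concentration that inhibits growth by half.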 Active and inactive are the calls of the source. No stated cut-off is given here; in the data, active = GI50 up to about 1.1 µM and inactive = higher.

What was measured:
Assay in all cases: DTP human tumour cell line panel, 48 h
SW-620 = test system: SW-620
COLO 205 = test system: COLO 205
HCC 2998 = test system: HCC 2998
HCT-15 = test system: HCT-15
HOP-92 = test system: HOP-92
OVCAR-8 = test system: OVCAR-8
XF498 = test system: XF498
SF-295 = test system: SF-295
HCT-116 = test system: HCT-116
RPMI-8226 = test system: RPMI-8226
UACC-257 = test system: UACC-257
SK-MEL-2 = test system: SK-MEL-2
SNB-19 = test system: SNB-19
SR = test system: SR
NCI-H226 = test system: NCI-H226
RXF 631 = test system: RXF 631
OVCAR-4 = test system: OVCAR-4
DMS-273 = test system: DMS-273
CCRF-CEM = test system: CCRF-CEM
U-251 = test system: U-251
OVCAR-3 = test system: OVCAR-3
LXFL 529 = test system: LXFL 529
NCI-H522 = test system: NCI-H522
KM12 = test system: KM12
CAKI-1 = test system: CAKI-1
UACC-62 = test system: UACC-62
MOLT-4 = test system: MOLT-4
SNB-75 = test system: SNB-75
IGROV-1 = test system: IGROV-1
SF-539 = test system: SF-539
UO-31 = test system: UO-31
Malme-3M = test system: Malme-3M
M19-MEL = test system: M19-MEL
A549 = test system: A549
NCI-H460 = test system: NCI-H460
EKVX = test system: EKVX
KM-20L2 = test system: KM-20L2
NCI-H23 = test system: NCI-H23
SF-268 = test system: SF-268
HT-29 = test system: HT-29
SK-MEL-28 = test system: SK-MEL-28
TK-10 = test system: TK-10
SN12C = test system: SN12C
DLD-1 = test system: DLD-1
M14 = test system: M14
ACHN = test system: ACHN
786-0 = test system: 786-0
HOP-62 = test system: HOP-62
K562 = test system: K562
HL-60 = test system: HL-60
RXF 393 = test system: RXF 393
DMS-114 = test system: DMS-114

Structure (SMILES): O=C1c2ccccc2C(=O)c2[nH]c(Cc3ccc(F)cc3)nc21
- GI50 (SW-620): 14.5 µM (inactive)
- GI50 (COLO 205): 22.1 µM (inactive)
- GI50 (HCC 2998): 26.2 µM (inactive)
- GI50 (HCT-15): 6.44 µM
- GI50 (HOP-92): 19.9 µM (inactive)
- GI50 (OVCAR-8): 17.4 µM (inactive)
- GI50 (XF498): 17.2 µM (inactive)
- GI50 (SF-295): 16.7 µM (inactive)
- GI50 (HCT-116): 19.5 µM (inactive)
- GI50 (RPMI-8226): 22.8 µM (inactive)
- GI50 (UACC-257): 16.3 µM (inactive)
- GI50 (SK-MEL-2): 13.9 µM (inactive)
- GI50 (SNB-19): 24.4 µM (inactive)
- GI50 (SR): 21.6 µM (inactive)
- GI50 (NCI-H226): 22.8 µM (inactive)
- GI50 (RXF 631): 15.9 µM (inactive)
- GI50 (OVCAR-4): 14.8 µM (inactive)
- GI50 (DMS-273): 18.1 µM (inactive)
- GI50 (CCRF-CEM): 24.6 µM (inactive)
- GI50 (U-251): 22.6 µM (inactive)
- GI50 (OVCAR-3): 5.4 µM (inactive)
- GI50 (LXFL 529): 26.4 µM (inactive)
- GI50 (NCI-H522): 14.5 µM (inactive)
- GI50 (KM12): 16.2 µM (inactive)
- GI50 (CAKI-1): 19.7 µM (inactive)
- GI50 (UACC-62): 15.5 µM (inactive)
- GI50 (MOLT-4): 24.8 µM (inactive)
- GI50 (SNB-75): 20.9 µM (inactive)
- GI50 (IGROV-1): 12.5 µM (inactive)
- GI50 (SF-539): 17.8 µM (inactive)
- GI50 (UO-31): 29.6 µM (inactive)
- GI50 (Malme-3M): 14.5 µM (inactive)
- GI50 (M19-MEL): 16.9 µM (inactive)
- GI50 (A549): 19.5 µM (inactive)
- GI50 (NCI-H460): 15.2 µM (inactive)
- GI50 (EKVX): 19.2 µM (inactive)
- GI50 (KM-20L2): 17.1 µM (inactive)
- GI50 (NCI-H23): > 10 µM (inactive)
- GI50 (SF-268): 21.8 µM (inactive)
- GI50 (HT-29): 15.9 µM (inactive)
- GI50 (SK-MEL-28): 18.7 µM (inactive)
- GI50 (TK-10): 34.1 µM (inactive)
- GI50 (SN12C): 22 µM (inactive)
- GI50 (DLD-1): 4.01 µM (inactive)
- GI50 (M14): 15.3 µM (inactive)
- GI50 (ACHN): 14.2 µM (inactive)
- GI50 (786-0): 16.9 µM (inactive)
- GI50 (HOP-62): 21.9 µM (inactive)
- GI50 (K562): 37.2 µM (inactive)
- GI50 (HL-60): 17.9 µM (inactive)
- GI50 (RXF 393): 6.97 µM (inactive)
- GI50 (DMS-114): > 10 µM (inactive)
